Values quoted from earlier work, collected in PMC12525602, “Identification of Selective α-Glucosidase Inhibitors via Virtual Screening with Machine Learning” (Molecules, 2025).

test system: α-glucosidase; settings: activity label in the 300-compound modeling dataset (Table S5); 1 = active, 0 = inactive; cited from earlier work

Compound | activity
COc1ccc([C@@H]2CC(=O)c3c(O)cc(O[C@@H]4O[C@H](CO[C@@H]5O[C@@H](C)[C@H](O)[C@@H](O)[C@H]5O)[C@@H](O)[C@H](O)[C@H]4O)cc3O2)cc1O [compound 185] | 1
Cc1ccc(-c2csc(N/N=C/c3ccc(N4CCC(C)CC4)cc3)n2)cc1 [compound 186] | 1
COc1cccc(C(=O)C2C(O)c3ccccc3S(=O)(=O)N2CC(=O)Nc2ccccc2Br)c1 (centres unmarked) [compound 187] | 1
CCCCCCCCCCCCCCCC(N)=O [compound 188] | 1
COc1ccc(Br)cc1-c1nnc(/N=C(/CSc2nnc3c(n2)[nH]c2ccccc23)c2ccc(C)cc2)s1 [compound 189] | 1
Nc1ccc(CCC(=O)N2CC[C@@H](O)[C@@H](O)C2)cc1 [compound 190] | 1
O=C(NNS(=O)(=O)c1ccc(Cl)cc1)c1cc2cc(F)ccc2[nH]1 [compound 191] | 1
O=C(CCc1ccc(O)cc1)c1c(O)cc(O)cc1O[C@@H]1O[C@H](CO)[C@@H](O)[C@H](O)[C@H]1O [compound 192] | 1
N#Cc1ccc2[nH]c(-c3nnc(Nc4ccc(Cl)c(Cl)c4)s3)cc2c1 [compound 193] | 1
CC1CCN(c2ccc(/C=N/Nc3nc(-c4ccc(O)cc4)cs3)cc2)CC1 [compound 194] | 1
O=C(O)/C=C/c1ccc(O)cc1 [compound 195] | 1
COc1cccc(C(=O)C2C(O)c3ccccc3S(=O)(=O)N2CC(=O)Nc2cccc(C)c2)c1 (centres unmarked) [compound 196] | 1
Cc1ccc(-c2cc(C(F)(F)F)nn2-c2ccc(S(=O)(=O)NC(=O)c3ccccc3)cc2)cc1 [compound 197] | 1
COc1ccc(OC)c(/C(CSc2nnc3c(n2)[nH]c2ccccc23)=N\c2nnc(-c3cc(Br)ccc3OC)s2)c1 [compound 198] | 1
COc1ccc(Br)cc1-c1nnc(/N=C(/CSc2nnc3c(n2)[nH]c2ccccc23)c2ccccc2[N+](=O)[O-])s1 [compound 199] | 1
Cc1ccc(-c2cc(C(F)(F)F)nn2-c2ccc(S(=O)(=O)NC(=O)c3cccc([N+](=O)[O-])c3)cc2)cc1 [compound 200] | 1
Cc1ccc(-c2cc(C(F)(F)F)nn2-c2ccc(S(=O)(=O)NC(=O)c3ccccc3[N+](=O)[O-])cc2)cc1 [compound 201] | 1

same assay, conditions: activity label of the modeling dataset, Table S5; cited from earlier work

Compound | activity
COc1cc(/C=N/N=C2\C(=O)Nc3ccccc32)ccc1OCc1cn(Cc2ccc(F)cc2)nn1 [compound 144] | 0
O=C1/C(=N\N=C\c2ccc(OCc3cn(Cc4ccccc4)nn3)cc2)c2ccccc2N1c1ccc(Br)cc1 [compound 145] | 0
Cc1ccccc1Cn1cc(COc2ccc(/C=N/N=C3\C(=O)N(c4ccc(Br)cc4)c4ccccc43)cc2)nn1 [compound 146] | 0
Cc1ccc(Cn2cc(COc3ccc(/C=N/N=C4\C(=O)N(c5ccc(Br)cc5)c5ccccc54)cc3)nn2)cc1 [compound 147] | 0
O=C1/C(=N\N=C\c2ccc(OCc3cn(Cc4ccccc4F)nn3)cc2)c2ccccc2N1c1ccc(Br)cc1 [compound 148] | 0
O=C(CSc1nc2ccccc2cc1-c1nc2ccccc2[nH]1)Nc1cccc(Cl)c1 [compound 149] | 1
O=C(NNS(=O)(=O)c1ccc(C(F)(F)F)cc1)c1cc2cc(F)ccc2[nH]1 [compound 150] | 1
COc1cc(Br)ccc1-c1nnc(/N=C(/CSc2nnc3c(n2)[nH]c2ccccc23)c2ccc(Br)cc2Br)s1 [compound 151] | 1
Brc1cc(-c2ccccc2)ccc1/C(CSc1nnc2c(n1)[nH]c1ccccc12)=N\c1nnc(-c2ccc3ccccc3c2)s1 [compound 152] | 1
O=[N+]([O-])c1ccccc1-c1nnc(/N=C(/CSc2nnc3c(n2)[nH]c2ccccc23)c2ccc(Br)cc2Br)s1 [compound 153] | 1
N#Cc1ccc2[nH]c(-c3nnc(Nc4cccc([N+](=O)[O-])c4)s3)cc2c1 [compound 154] | 1
O=C(CCc1ccc(O)cc1)c1c(O)cc(O[C@@H]2O[C@H](CO)[C@@H](O)[C@H](O)[C@H]2O)cc1O [compound 155] | 1
COc1cc(/C=C(\Oc2ccc(/C=C/C(=O)O)cc2OC)C(=O)O)ccc1O [compound 157] | 1
O=c1c(O[C@@H]2O[C@H](CO)[C@@H](O)[C@H](O)[C@H]2O)c(-c2ccc(O)c(O)c2)oc2cc(O)cc(O)c12 [compound 159] | 1
O=C(O)CCCCCCCCCCCCCCCO [compound 160] | 1
COc1cc(-c2oc3cc(O)cc(O)c3c(=O)c2O)ccc1O [compound 161] | 1
CC(C)=CCC1=C(O)C(CC=C(C)C)(CC=C(C)C)C(=O)C(C(=O)CC(C)C)=C1O [compound 163] | 1
COc1ccc(Br)cc1-c1nnc(/N=C(/CSc2nnc3c(n2)[nH]c2ccccc23)c2cccc([N+](=O)[O-])c2)s1 [compound 164] | 1

Compound | activity
COc1ccc(Br)cc1-c1nnc(/N=C(/CSc2nnc3c(n2)[nH]c2ccccc23)c2ccc(-c3ccccc3)cc2)s1 [compound 165] | 1
COc1cc(/C=C(\C(=O)O)c2cc(/C=C/C(=O)O)cc(OC)c2O)ccc1O [compound 166] | 1
COc1cc(O)c(CC=C(C)C)c(O)c1C(=O)/C=C/c1ccc(O)cc1 [compound 167] | 1
COc1cccc(C(=O)C2C(O)c3ccccc3S(=O)(=O)N2CC(=O)Nc2ccccc2Cl)c1 (centres unmarked) [compound 168] | 1
CC(C)=CCc1c(O)cc2c(c1O)C(=O)CC(c1ccc(O)cc1)O2 (centres unmarked) [compound 169] | 1
N#Cc1ccc2[nH]c(-c3nnc(Nc4ccc(F)cc4)s3)cc2c1 [compound 170] | 1
O=[N+]([O-])c1ccccc1-c1nnc(/N=C(/CSc2nnc3c(n2)[nH]c2ccccc23)c2cccc([N+](=O)[O-])c2Br)s1 [compound 171] | 1
COc1ccc(/C(CSc2nnc3c(n2)[nH]c2ccccc23)=N\c2nnc(-c3cc(Br)ccc3OC)s2)cc1 [compound 173] | 1
CC(C)C1=CC2=CC[C@@H]3[C@](C)(CCC[C@@]3(C)C(=O)O)[C@H]2CC1 [compound 174] | 1
C[C@@H]1O[C@@H](Oc2c(-c3ccc(O)c(O)c3)oc3cc(O)cc(O)c3c2=O)[C@H](O)[C@H](O)[C@H]1O [compound 175] | 1
O=C(CCc1ccc(O)cc1)c1c(O)cc(O)cc1O [compound 176] | 1
COc1cccc(C(=O)C2=C(O)c3ccccc3S(=O)(=O)C2CC(=O)Nc2ccc(Cl)cc2)c1 (centres unmarked) [compound 177] | 1
COc1cccc(C(=O)C2C(O)c3ccccc3S(=O)(=O)N2CC(=O)Nc2ccc(Cl)cc2)c1 (centres unmarked) [compound 178] | 1
COc1cc(O)c(CC=C(C)C)c2c1C(=O)CC(c1ccc(O)cc1)O2 (centres unmarked) [compound 179] | 1
O=[N+]([O-])c1cccc(/C(CSc2nnc3c(n2)[nH]c2ccccc23)=N\c2nnc(-c3cc(Cl)cc(Cl)c3O)s2)c1 [compound 180] | 1
O=C(NNS(=O)(=O)c1ccc(Br)cc1)c1cc2cc(F)ccc2[nH]1 [compound 182] | 1
COc1cc(/C=C/C(=O)O)ccc1O [compound 183] | 1
N#Cc1ccc2[nH]c(-c3nnc(Nc4ccccc4F)s3)cc2c1 [compound 184] | 1
